Legend:
[1] = molecular target: human PRMT5 complex enzyme (Homo sapiens, UniProt O14744); assay: PRMT5 inhibition study ([3H]SAM / Histone H4 methylation, filter scintillation counting); format: biochemical; details: 30 μM test compound; 120 min at 22° C.; 600 nM [3H]SAM, 250 nM Histone H4 full length; percent inhibition of the control enzyme activity
Protocol: The test compound, reference compound, or water (control) were incubated for 120 min at 22° C. with about 200 ng human PRMT5 complex enzyme, 600 nM [^3H]SAM and 250 nM Histone H4 full length in a buffer containing 45 mM Tris-HCl (pH 9), 45 mM NaCl, 4.5 mM MgCl2 and 3.6 mM DTT (Dithiothreitol).
For control basal measurements, the enzyme was omitted from the reaction mixture. Following incubation, the reaction was stopped by adding 33 mM citric acid and the samples were filtered rapidly in vacuo through glass fiber filters (GF/B, Packard) presoaked with 33 mM citric acid and rinsed several times with ice-cold 33 mM citric acid using a 96-sample cell harvester (Unifilter, Packard). The filters were dried then counted for radioactivity in a scintillation counter (Topcount, Packard) using a scintillation cocktail (Microscint 0, Packard).
The results were expressed as a percent inhibition of the control enzyme activity.

Chain of human PRMT5 complex enzyme (O14744 whole entry): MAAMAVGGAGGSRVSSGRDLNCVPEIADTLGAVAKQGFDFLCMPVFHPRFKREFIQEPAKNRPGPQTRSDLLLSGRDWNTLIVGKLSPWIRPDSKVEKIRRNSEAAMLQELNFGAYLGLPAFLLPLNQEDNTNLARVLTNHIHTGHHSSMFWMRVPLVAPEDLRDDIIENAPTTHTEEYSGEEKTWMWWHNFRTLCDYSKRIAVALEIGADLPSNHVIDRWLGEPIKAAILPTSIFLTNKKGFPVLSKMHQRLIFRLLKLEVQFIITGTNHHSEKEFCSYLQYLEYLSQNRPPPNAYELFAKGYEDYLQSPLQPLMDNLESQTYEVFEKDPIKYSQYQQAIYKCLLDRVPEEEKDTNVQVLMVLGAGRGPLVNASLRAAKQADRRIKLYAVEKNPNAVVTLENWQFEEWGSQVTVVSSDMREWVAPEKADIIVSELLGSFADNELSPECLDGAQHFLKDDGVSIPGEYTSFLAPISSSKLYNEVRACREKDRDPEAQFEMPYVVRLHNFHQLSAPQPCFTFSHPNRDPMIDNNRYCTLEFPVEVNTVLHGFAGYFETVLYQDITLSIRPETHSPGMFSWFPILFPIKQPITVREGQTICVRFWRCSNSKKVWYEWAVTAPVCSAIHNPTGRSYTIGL
Chain of human PRMT5 complex enzyme (Q9BQA1 whole entry partner): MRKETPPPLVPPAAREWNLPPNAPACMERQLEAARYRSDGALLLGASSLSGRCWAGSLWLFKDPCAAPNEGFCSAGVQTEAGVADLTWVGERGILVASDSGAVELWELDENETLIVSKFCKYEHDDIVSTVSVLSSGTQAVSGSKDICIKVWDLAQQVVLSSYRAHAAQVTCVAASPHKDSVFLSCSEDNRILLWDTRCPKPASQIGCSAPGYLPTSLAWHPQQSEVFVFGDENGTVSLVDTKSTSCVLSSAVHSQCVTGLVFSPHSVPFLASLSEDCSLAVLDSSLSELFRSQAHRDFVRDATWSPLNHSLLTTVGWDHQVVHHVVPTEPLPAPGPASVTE

Compound | inhibition at 30 µM [1] | also measured
Nc1ncnc2c1ncn2[C@@H]1O[C@]2(C[C@H](O)C2)[C@@H](O)[C@H]1O | 37.7% | –
Nc1ncnc2c1ncn2[C@@H]1O[C@]2(C[C@@H](O)C2)[C@@H](O)[C@H]1O | 70.3% | –
Nc1ncnc2c1ccn2[C@@H]1C[C@]2(C[C@H](Cc3cccnc3)C2)[C@@H](O)[C@H]1O | 100% | –
Nc1ncnc2c1ccn2[C@@H]1C[C@]2(C[C@@H](Cc3cccnc3)C2)[C@@H](O)[C@H]1O | 99.8% | –
Nc1ncnc2c1ccn2[C@@H]1C[C@]2(C[C@@H](Cc3ccn4ccnc4c3)C2)[C@@H](O)[C@H]1O | 102% | –
CCCN[C@H]1C[C@]2(C[C@@H](n3cnc4c(N)ncnc43)[C@H](O)[C@@H]2O)C1 | 69.8% | –
Nc1ncnc2c1ccn2[C@@H]1O[C@]2(C[C@@H](N)C2)[C@@H](O)[C@H]1O | 46.3% | –
CCCN[C@H]1C[C@]2(C1)O[C@@H](n1cnc3c(N)ncnc31)[C@H](O)[C@@H]2O | 33.8% | –
Nc1ncnc2c1ncn2[C@@H]1O[C@@]2(CC[C@H]2O)C(O)C1O (stereo partly drawn) | 98% | –
Nc1ncnc2c1ncn2[C@@H]1O[C@@]2(CC[C@@H]2O)C(O)C1O (stereo partly drawn) | 42% | –
NC[C@H]1C[C@]12O[C@@H](n1cnc3c(N)ncnc31)C(O)C2O (stereo partly drawn) | 79% | –
CCCN(C)C[C@H]1C[C@]12O[C@@H](n1cnc3c(N)ncnc31)C(O)C2O (stereo partly drawn) | 16% | –
CCCNC[C@H]1C[C@]12O[C@@H](n1cnc3c(N)ncnc31)C(O)C2O (stereo partly drawn) | 39% | –
Nc1ncnc2c1ncn2[C@@H]1O[C@@]2(C[C@H]2O)C(O)C1O (stereo partly drawn) | 72% | –
Nc1ncnc2c1ncn2[C@@H]1O[C@@]2(C[C@@H]2CO)C(O)C1O (stereo partly drawn) | 29% | –
Nc1ncnc2c1ncn2[C@@H]1O[C@]2(C[C@@H]2CO)C(O)C1O (stereo partly drawn) | 84% | –
Nc1ncnc2c1ncn2[C@@H]1O[C@]2(C[C@H]2CO)C(O)C1O (stereo partly drawn) | 31% | –
C=C1O[C@@H]2OC(C)(C)O[C@@H]2[C@@H]1OCc1ccc2ccccc2c1 [Compound 66.2] | – | melting point: 102.01 °C
CC1(C)O[C@H]2OC3(CC(=O)C3)[C@@H](OCc3ccc4ccccc4c3)[C@H]2O1 [Compound 66.4] | – | melting point: 101.79 °C
Nc1ncnc2c1ncn2[C@@H]1O[C@@]2(C[C@H]2CO)C(O)C1O (stereo partly drawn) [drawing 332] | 36.4% | –
Nc1ncnc2c1ncn2[C@@H]1O[C@@]2(C[C@H]2CO)C(O)C1O (stereo partly drawn) [drawing 333] | – | % PRMT5 inhibition at 30 μM [1]: 55.9%
